Assay results published in paper PMC2763043 (ACS chemical biology, 2009).

Experiments:
[1] = test system: MDA-kb2 cells; assay: Cytotoxicity in MDA-kb2; type: cell-based; conditions: Cell-Titer Glo, 20 hours
[2] = test system: AR; conditions: cited from earlier work
[3] = PAMPA permeability and membrane retention; conditions: 0.5% DMSO, pH 7.4
[4] = biological target: Androgen Receptor (AR) (Homo sapiens, UniProt P10275); assay: AR transcription reporter assay; type: cell-based; conditions: 0.2 nM DHT
[5] = biological target: T1, AR-LBD (Homo sapiens, UniProt P10275); assay: Scintillation Proximity Assay, [3H]-DHT displacement from AR-LBD; type: binding; conditions: SPA
T1 sequence (P10275 663-919): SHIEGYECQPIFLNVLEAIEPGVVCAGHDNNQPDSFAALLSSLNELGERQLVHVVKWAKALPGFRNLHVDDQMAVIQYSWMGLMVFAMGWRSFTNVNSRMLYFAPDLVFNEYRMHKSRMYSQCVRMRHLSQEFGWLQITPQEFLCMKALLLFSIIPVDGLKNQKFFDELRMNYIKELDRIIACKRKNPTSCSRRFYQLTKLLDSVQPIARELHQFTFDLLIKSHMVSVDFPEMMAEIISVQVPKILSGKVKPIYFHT

[6] = test system: FKBP51; assay: Real time rt-PCR of FKBP51, 18S and GAPDH in MDA-kb2; type: cell-based; conditions: 0.2 nM DHT, MDA-kb2, control experiments
[7] = in vitro; conditions: PAMPA, pH 7.4

Androgen Receptor (AR), sequence (P10275 whole entry, the tested form may be a part): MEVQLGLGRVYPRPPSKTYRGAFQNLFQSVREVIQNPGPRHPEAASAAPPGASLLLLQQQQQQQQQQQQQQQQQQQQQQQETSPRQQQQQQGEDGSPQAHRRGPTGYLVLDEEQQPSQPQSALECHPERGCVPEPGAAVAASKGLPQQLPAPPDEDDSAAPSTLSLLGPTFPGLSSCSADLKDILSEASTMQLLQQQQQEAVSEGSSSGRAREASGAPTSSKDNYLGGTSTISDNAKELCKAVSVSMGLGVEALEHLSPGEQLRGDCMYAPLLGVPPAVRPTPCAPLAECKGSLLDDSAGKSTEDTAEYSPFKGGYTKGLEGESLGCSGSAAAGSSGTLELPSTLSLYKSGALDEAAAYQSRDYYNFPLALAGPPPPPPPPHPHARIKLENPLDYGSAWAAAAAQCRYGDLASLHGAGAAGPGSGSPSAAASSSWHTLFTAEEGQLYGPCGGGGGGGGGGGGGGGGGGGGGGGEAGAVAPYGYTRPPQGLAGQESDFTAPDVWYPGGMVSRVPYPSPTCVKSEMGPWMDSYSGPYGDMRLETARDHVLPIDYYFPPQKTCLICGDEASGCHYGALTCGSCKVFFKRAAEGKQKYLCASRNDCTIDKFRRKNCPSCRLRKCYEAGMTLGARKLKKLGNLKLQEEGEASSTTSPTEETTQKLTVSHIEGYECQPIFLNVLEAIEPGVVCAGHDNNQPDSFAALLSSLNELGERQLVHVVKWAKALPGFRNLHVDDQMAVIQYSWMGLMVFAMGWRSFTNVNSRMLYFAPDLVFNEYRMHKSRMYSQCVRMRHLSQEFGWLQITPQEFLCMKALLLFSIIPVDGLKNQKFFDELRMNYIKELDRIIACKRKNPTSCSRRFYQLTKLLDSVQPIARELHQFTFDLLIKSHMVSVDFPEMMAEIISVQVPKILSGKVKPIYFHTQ

**Q.** With `CC(O)(CS(=O)(=O)c1ccc(F)cc1)C(=O)Nc1ccc(C#N)c(C(F)(F)F)c1` (centres unmarked) [Bicalutamide] as the compound, how does the “Cytotoxicity (IC50) in MDA-kb2” value [1] read?
**A.** Its value is “Non toxic”.

**Q.** For `O=C(O)c1ccccc1Nc1cccc(C(F)(F)F)c1` [Compound 1, flufenamic acid], which “Block of AR transcription activity” value [2] is on record?
**A.** The value was “able to block AR transcription activity”.

**Q.** With `O=C(O)c1ccccc1Nc1ccc(Cc2ccccc2)cc1` [Compound 20] as the compound, how does the Permeability [3] read?
**A.** Its Permeability is 98 ± 31 10^‒6 cm s^‒1.

**Q.** What about the Retention in membrane [3] of the same compound?
**A.** The Retention in membrane was 89%.

**Q.** What about the “% inhibition (in brackets), transcriptional inhibition in MDA-kb2” value [4] of the same compound?
**A.** Its value is 75%.

**Q.** What about the “Cytotoxicity (IC50) in MDA-kb2” value [1] of the same compound?
**A.** The value was “Non toxic”.

**Q.** What about the “Binding to the DHT (hormone) binding site of AR-LBD, in words” value [5] of the same compound?
**A.** Its value is “low micromolar range”.

**Q.** For `C[C@]12CCC(=O)C[C@@H]1CC[C@@H]1[C@@H]2CC[C@]2(C)[C@@H](O)CC[C@@H]12` [DHT, dihydrotestosterone], which FKBP51 induction [6] is on record?
**A.** Its FKBP51 induction is 4–5 fold.

**Q.** Which Retention in membrane [3] does the source give for `CC(C)(O)C(=O)Nc1ccc([N+](=O)[O-])c(C(F)(F)F)c1` [Hydroxyflutamide] here?
**A.** Its Retention in membrane is 75%.

**Q.** And the Papp [7]?
**A.** Its Papp is 183 ± 29 ×10⁻⁶ cm/s.

**Q.** What about the “Cytotoxicity (IC50) in MDA-kb2” value [1] of the same compound?
**A.** Its value is “Non toxic”.
